Converted amounts (≈) assume the structure as drawn.
Tests used:
[1] = system: human breast adenocarcinoma (MCF-7); test: MTT antiproliferative assay, MCF-7 cells; type: cell-based; details: for IC50: Homo sapiens, MCF7, MCF-7 cells, MTT, 48 h exposure, read-out: IC50 [µg/ml] ± SEM, MCF-7; for SI [IC50BJ/IC50], MCF-7: safety index = IC50 normal cells (BJ)/IC50 MCF-7
Experimental: (§1) The experiment was carried out using normal human skin fibroblasts (BJ) and tumour cell lines: human lung carcinoma (A549), human hepatocellular carcinoma (HepG2), and human breast adenocarcinoma (MCF-7). All cell lines were obtained from ATCC (American Type Culture Collection, England, UK) and cultured in the appropriate, recommended by ATCC, culture medium, additionally supplemented with 10% foetal bovine serum and antibiotics: 100 U/ml penicillin and 100 µg/ml streptomycin. The cells were maintained at 37 °C in a humidified atmosphere of 5% CO2 and 95% air. Antiproliferative activity of the new compounds was assessed by, commonly used for this purpose, colorimetric MTT assay. Cells with active mitochondrial dehydrogenases reduced intracellularly the tetrazolium dye into purple formazan, which is proportional to the number of viable cells. The cells were seeded in 96-multiwell plates in 100 μl of the appropriate complete culture medium at a concentration of 7 × 10^3 cells/well in the case of BJ cells (normal fibroblasts), 1 × 10^4 cells/well in the case of A549 cells (lung cancer), 1.5 × 10^4 cells/well in the case of HepG2 cells (liver cancer), and 2 × 10^4 cells/well in the case of MCF-7 cells (breast cancer) so as to obtain 60–70% confluent culture after 24 h of incubation at 37 °C – the cells are then in the log (logarithmic) phase, during a period of active proliferation, but still have an unoccupied space to divide. Afterwards, the culture medium was discarded and replaced with 100 µl of different concentrations of new tested compounds and reference antiproliferative agent: irinotecan. The stock solutions of the compounds were prepared in DMSO, and solvent control was being tested concurrently to exclude toxicity attributed to DMSO. Ten serial two-fold dilutions using culture medium were performed to prepare different concentrations of the tested compounds, and the highest tested concentration was 200 µg/ml. Untreated cells (maintained in the complete culture medium) served as a negative control. After exposing cells for 48 h to the tested derivatives, the MTT assay was performed as described earlier. Three independent experiments (n = 3) were performed in a quadruplicate. The obtained data were analysed using GraphPad Prism 5, version 5.03 software (La Jolla, CA). […] Moreover, safety index (SI) was calculated using the following formula: SI=IC50normal cells (BJ)/IC50cancer cells

[2] = system: human lung carcinoma (A549); test: MTT antiproliferative assay, A549 cells; type: cell-based; details: for IC50: Homo sapiens, A549 cells, MTT, 48 h exposure, read-out: IC50 [µg/ml] ± SEM, A549; for SI [IC50BJ/IC50], A549: safety index = IC50 normal cells (BJ)/IC50 A549
Experimental: as §1

[3] = system: human hepatocellular carcinoma (HepG2); test: MTT antiproliferative assay, HepG2 cells; type: cell-based; details: for IC50: Homo sapiens, HepG2 cells, MTT, 48 h exposure, read-out: IC50 [µg/ml] ± SEM, HepG2; for SI [IC50BJ/IC50], HepG2: safety index = IC50 normal cells (BJ)/IC50 HepG2
Experimental: as §1

[4] = system: normal human skin fibroblasts (BJ); test: MTT assay, normal fibroblasts BJ; type: cell-based; details: Skin fibroblast, 48 h exposure, read-out: IC50 [µg/ml] ± SEM, BJ
Experimental: as §1

[5] = system: Staphylococcus epidermidis ATCC 12228; test: Broth microdilution MIC, S. epidermidis ATCC 12228; type: cell-based; details: 35 °C; for MIC: Staphylococcus epidermidis, ATCC12228, 18 h, read-out: Minimal inhibitory concentration MIC, Staphylococcus epidermidis 12228
Experimental: (§2) Newly synthesised compounds’ antibacterial activities were tested in vitro against six aerobic bacteria reference strains: three Gram-positive (Staphylococcus aureus ATCC 25923, methicillin-resistant S. aureus MIKROBANK 14.001 reference strain from National Medicines Institute in Warsaw, and Staphylococcus epidermidis ATCC 12228) and three Gram-negative (Escherichia coli ATCC 25922, Proteus mirabilis ATCC 12453, and Pseudomonas aeruginosa ATCC 9027).
(§3) Bacterial cell suspensions equivalent to 0.5 McFarland (1.5 × 10^8 CFU/ml) were prepared in 0.85% sterile saline. Tested compounds’ stock solutions (50 mg/ml) were dissolved in dimethyl sulphoxide (DMSO).
(§4) Bacteria strain susceptibility to tested agents was determined by broth microdilution method. Broth microdilution method was carried out in accordance with Clinical and Laboratory Standards Institute recommendations and was used as reference method. Mueller–Hinton broth containing two-fold dilutions of the tested substances (at concentrations ranging from 3.91 to 1000 µg/ml) was used to determine their minimal inhibitory concentration (MIC) which is the lowest concentration of an antibacterial that will inhibit the visible growth of a microorganism after 18 h of incubation). Mueller–Hinton broth is recommended as the medium of choice for susceptibility testing of commonly isolated, rapidly growing aerobic, or facultative organisms. Gentamicin (KRKA, Slovenia), an aminoglycoside antibiotic active against a wide range of human bacterial infections, mostly Gram-negative bacteria including Pseudomonas, Proteus, Serratia, and the Gram-positive Staphylococcus, was used as a control antibacterial agent (at concentration from 0.12 µg to 1000 µg).
(§5) Tested compounds two-fold dilutions in Mueller–Hinton broth without bacteria were blank control wells (incubated on equal conditions). Polystyrene trays containing 96 wells were filled with serial two-fold Mueller–Hinton broth dilutions of tested agents. Next, the broth was inoculated with 20 μl of 0.5 McFarland microbial suspension (previously diluted 1:10 by Mueller–Hinton broth). Total volume per each well was 200 μl. After incubation (at 35 °C for 18 h), bacterial cultures’ optical density was measured by microplate reader (BioTek Synergy H4 Hybrid Reader) at 600 nm. The MIC values were determined by the comparison of broth bacterial culture OD600 containing tested concentrations of examined substances to blank control wells.

[6] = system: methicillin-resistant S. aureus MIKROBANK 14.001; test: Broth microdilution MIC, methicillin-resistant S. aureus; type: cell-based, Staphylococcus aureus; details: methicillin-resistant strain, 18 h, 35 °C; for MIC: Staphylococcus aureus, read-out: Minimal inhibitory concentration MIC, Staphylococcus aureus MIKROBANK 14.001
Experimental: as §2, §3, §4, §5

[7] = system: Staphylococcus aureus ATCC 25923; test: Broth microdilution MIC, S. aureus ATCC 25923; type: cell-based; details: 35 °C; for MIC: Staphylococcus aureus, ATCC25923, 18 h, read-out: Minimal inhibitory concentration MIC, Staphylococcus aureus 25923
Experimental: as §2, §3, §4, §5

SMILES: O=C(CC1SC(=O)NC1=O)Oc1cccc(C=NNC(=S)Nc2ccccc2)c1 (stereo not drawn) [Compound 22, 3-{[2-(Phenylcarbamothioyl)hydrazinylidene]methyl}phenyl (2,4-dioxo-1,3-thiazolidin-5-yl)acetate]
- IC50 [1]: 72 ± 1.1 µg/mL (≈ 168 µM)
- SI [IC50BJ/IC50], MCF-7 [1]: 1.13
- melting point: 209 to 211 °C
- IC50 [2]: 57.3 ± 1.19 µg/mL (≈ 134 µM)
- SI [IC50BJ/IC50], A549 [2]: 1.43
- IC50 [3]: 48.3 ± 1.07 µg/mL (≈ 113 µM)
- SI [IC50BJ/IC50], HepG2 [3]: 1.69
- IC50 [4]: 81.6 ± 1.11 µg/mL (≈ 190 µM)

SMILES: O=C(CC1SC(=O)NC1=O)Oc1cccc(C=NNC(=O)c2cccc(Cl)c2)c1 (stereo not drawn) [Compound 12, 3-{[2-(3-Chlorobenzoyl)hydrazinylidene]methyl}phenyl (2,4-dioxo-1,3-thiazolidin-5-yl)acetate]
- MIC [5]: 500 µg/mL
- MIC [6]: 500 µg/mL
- melting point: 244 to 245 °C
- MIC [7]: 500 µg/mL

SMILES: COc1cc(C=NNC(=S)Nc2ccccc2)ccc1OC(=O)CC1SC(=O)NC1=O (stereo not drawn) [Compound 26, 2-Methoxy-4-{[2-(phenylcarbamothioyl)hydrazinylidene]methyl}phenyl (2,4-dioxo-1,3-thiazolidin-5-yl)acetate]
- melting point: 182 to 184 °C

SMILES: CCc1c2c(nc3ccc(OC(=O)N4CCC(N5CCCCC5)CC4)cc13)-c1cc3c(c(=O)n1C2)COC(=O)[C@]3(O)CC [Irinotecan, irinotecan, reference compound]
- IC50 [1]: 21.1 ± 1.23 µg/mL (≈ 35.9 µM)
- SI [IC50BJ/IC50], MCF-7 [1]: 1.84
- IC50 [2]: 39.7 ± 1.2 µg/mL (≈ 67.7 µM)
- SI [IC50BJ/IC50], A549 [2]: 0.97
- IC50 [3]: 14.8 ± 1.24 µg/mL (≈ 25.2 µM)
- SI [IC50BJ/IC50], HepG2 [3]: 2.62
- IC50 [4]: 38.7 ± 1.37 µg/mL (≈ 65.9 µM)

SMILES: O=C(CC1SC(=O)NC1=O)Oc1ccc(C=NNC(=S)Nc2ccccc2)cc1 (stereo not drawn) [Compound 25, 4-{[2-(Phenylcarbamothioyl)hydrazinylidene]methyl}phenyl (2,4-dioxo-1,3-thiazolidin-5-yl)acetate]
- MIC [5]: 250 µg/mL
- MIC [6]: 250 µg/mL
- melting point: 159 to 162 °C
- MIC [7]: 250 µg/mL

SMILES: O=C(CC1SC(=O)NC1=O)Oc1ccc(C=NNC(=O)c2ccc(Cl)cc2Cl)cc1 (stereo not drawn) [Compound 15, 4-{[2-(2,4-Dichlorobenzoyl)hydrazinylidene]methyl}phenyl (2,4-dioxo-1,3-thiazolidin-5-yl)acetate]
- MIC [5]: 500 µg/mL
- MIC [6]: 500 µg/mL
- melting point: 196 to 198 °C
- MIC [7]: 500 µg/mL

SMILES: O=C(C=C1SC(=O)NC1=O)Oc1cccc(C=NNC(=O)c2cccc(Cl)c2)c1 [Compound 19, 3-{[2-(3-Chlorobenzoyl)hydrazinylidene]methyl}phenyl (2,4-dioxo-1,3-thiazolidin-5-ylidene)acetate]
- melting point: 282 to 283 °C

SMILES: O=C(C=C1SC(=O)NC1=O)Oc1ccc(C=NNC(=O)c2cccc(Cl)c2)cc1 [Compound 20, 4-{[2-(3-Chlorobenzoyl)hydrazinylidene]methyl}phenyl (2,4-dioxo-1,3-thiazolidin-5-ylidene)acetate]
- melting point: 278 to 279 °C
- IC50 [3]: 27 ± 1.02 µg/mL (≈ 62.7 µM)
- SI [IC50BJ/IC50], HepG2 [3]: 0.42
- IC50 [4]: 11.3 ± 1.05 µg/mL (≈ 26.4 µM)

SMILES: O=C(CC1SC(=O)NC1=O)Oc1ccc(C=NNC(=O)c2cccc(Cl)c2)cc1 (stereo not drawn) [Compound 14, 4-{[2-(3-Chlorobenzoyl)hydrazinylidene]methyl}phenyl (2,4-dioxo-1,3-thiazolidin-5-yl)acetate]
- melting point: 215 to 216 °C

SMILES: COc1cc(C=NNC(=S)Nc2ccccc2)ccc1OC(=O)C=C1SC(=O)NC1=O [Compound 28, 2-Methoxy-4-{[2-(phenylcarbamothioyl)hydrazinylidene]methyl}phenyl (2,4-dioxo-1,3-thiazolidin-5-ylidene)acetate]
- MIC [5]: 125 µg/mL
- MIC [6]: 125 µg/mL
- melting point: 186 to 187 °C
- MIC [7]: 125 µg/mL

SMILES: COc1cc(C=NNC(=O)c2cccc(Cl)c2)ccc1OC(=O)C=C1SC(=O)NC1=O [Compound 21, 4-{[2-(3-Chlorobenzoyl)hydrazinylidene]methyl}-2-methoxyphenyl (2,4-dioxo-1,3-thiazolidin-5-ylidene)acetate]
- IC50 [1]: 124 ± 1.63 µg/mL (≈ 270 µM)
- SI [IC50BJ/IC50], MCF-7 [1]: 0.25
- melting point: 246 to 248 °C
- IC50 [3]: 48.4 ± 1.02 µg/mL (≈ 105 µM)
- SI [IC50BJ/IC50], HepG2 [3]: 0.65
- IC50 [4]: 31.4 ± 1.08 µg/mL (≈ 68.3 µM)

SMILES: O=C(CC1SC(=O)NC1=O)Oc1cccc(C=NNC(=O)c2ccc(Cl)cc2Cl)c1 (stereo not drawn) [Compound 13, 3-{[2-(2,4-Dichlorobenzoyl)hydrazinylidene]methyl}phenyl (2,4-dioxo-1,3-thiazolidin-5-yl)acetate]
- MIC [5]: 500 µg/mL
- MIC [6]: 500 µg/mL
- melting point: 198 to 200 °C
- MIC [7]: 500 µg/mL

SMILES: COc1cc(C=NNC(=O)c2ccc(Cl)cc2Cl)ccc1OC(=O)CC1SC(=O)NC1=O (stereo not drawn) [Compound 17, 4-{[2-(2,4-Dichlorobenzoyl)hydrazinylidene]methyl}-2-methoxyphenyl (2,4-dioxo-1,3-thiazolidin-5-yl)acetate]
- MIC [5]: 500 µg/mL
- MIC [6]: 250 µg/mL
- melting point: 186 to 188 °C
- MIC [7]: 250 µg/mL

SMILES: O=C(C=C1SC(=O)NC1=O)Oc1ccc(C=NNC(=S)Nc2ccccc2)cc1 [Compound 27, 4-{[2-(Phenylcarbamothioyl)hydrazinylidene]methyl}phenyl (2,4-dioxo-1,3-thiazolidin-5-ylidene)acetate]
- Minimal inhibitory concentration MIC, Staphylococcus epidermidis 12228 ([5]; 18 h): 125 µg/mL
- MIC [5]: 125 µg/mL
- MIC [6]: 125 µg/mL
- Minimal inhibitory concentration MIC, Staphylococcus aureus MIKROBANK 14.001 [6]: 125 µg/mL
- melting point: 199 to 202 °C
- Minimal inhibitory concentration MIC, Staphylococcus aureus 25923 ([7]; 18 h): 125 µg/mL
- MIC [7]: 125 µg/mL

SMILES: COc1cc(C=NNC(=O)c2cccc(Cl)c2)ccc1OC(=O)CC1SC(=O)NC1=O (stereo not drawn) [Compound 16, 4-{[2-(3-Chlorobenzoyl)hydrazinylidene]methyl}-2-methoxyphenyl (2,4-dioxo-1,3-thiazolidin-5-yl)acetate]
- IC50 [1]: 117 ± 1.23 µg/mL (≈ 254 µM)
- SI [IC50BJ/IC50], MCF-7 [1]: 1.39
- melting point: 220 to 222 °C
- IC50 [4]: 163.3 ± 1.34 µg/mL (≈ 354 µM)

Reference: PMC6010082, “Synthesis and in vitro antiproliferative and antibacterial activity of new thiazolidine-2,4-dione derivatives” (Journal of Enzyme Inhibition and Medicinal Chemistry, 2017)
